“Also recorded” adds a separate entry of the source.
Key:
[1] = tested on: NOS1AP; experiment: Knockdown of endogenous NOS1AP protein, immunofluorescence intensity in primary dendrites; assay type: cell-based, rat; conditions: hippocampal neurons transfected DIV 10, fixed DIV 12 (48 hours)
Text: A) Hippocampal neurons were transfected with either pSUPER-scramble shRNA or pSUPER-NOS1AP shRNA at DIV10 and fixed at DIV12. B) Quantification of primary dendrites shown. C) Hippocampal neurons transfected with the same vectors as in A at DIV10 and fixed and immunostained for NOS1AP at DIV12. Zoomed inset indicates a representative region of primary dendrite showing corresponding fluorescence intensities of anti-NOS1AP. D) Quantification of NOS1AP levels in primary dendrite regions, as represented by normalized (total intensity/area) fluorescence intensity levels. *p<0.05 by Student's t-test.
A shRNA was constructed to knock down NOS1AP-L with the sequence 5′-[…]-3′ (SEQ ID NO: 22; position 790 of NM_138922) using the pSUPER vector. The resulting siRNA is specific to the long isoform of NOS1AP. […] Importantly, primary dendrite number increases by 67% when NOS1AP is knocked down (FIGS. 16A and B).

[2] = tested on: hippocampal neurons; experiment: Primary and secondary dendrite number in cultured hippocampal neurons; assay type: cell-based, rat
Text: In this example, the effects of overexpression of NOS1AP protein in neurons were examined using primary cultures of hippocampal neurons. cDNAs encoding the full-length NOS1AP protein (SEQ ID No. 2) and NOS1AP-S protein (SEQ ID No. 4) were separately cloned into expression vectors and transfected along with GFP (to elucidate neuronal morphology) at 10 days in vitro, a time when dendrite outgrowth and branching is rapidly occurring. It was hypothesized that NOS1AP may affect dendrite number since the NMDA receptor has been implicated in playing a role in regulating dendrite number, and overexpression of NOS1AP is thought to disrupt NMDA receptor signaling. Two days after transfection, the neurons were fixed, and dedrites were counted as described in Akum et al., Nat Neurosci 2004 February; 7(2):145-52, 2004 and Chen et al., Mol Biol Cell 2005 November; 16(11):5103-14. […] Since dendrite morphology is crucial to interneuronal communication, the increases in short-form NOS1AP protein seen in patients suffering from neuropsychiatric disorders, such as schizophrenia and bipolar disorders, may result in altered dendrite morphology in the hippocampus, and perhaps the DLPFC.
Neuronal cultures were prepared from hippocampi of rat embryos at 18 day gestation as described previously (Firestein et al., 1999). The hippocampi were dissociated, and cells were plated on poly-D-lysine-coated glass coverslips (12 mm diameter) at a density of 1800 cells/mm^2. Cultures were maintained in Neurobasal media supplemented with B27, penicillin, streptomycin, and L-glutamine. Cells were grown for 5-21 days in vitro (DIV) and used for specific experiments as indicated below.
cDNAs encoding human NOS1AP and several mutant forms of human NOS1AP were cloned into the expression vector pCMV6-XL4 (Origene). These plasmids are referred to directly as NOS1AP (or NOS1AP mutants) without indicating the vector. In addition, the fusion proteins GFP-NOS1AP-L (GFP-NPL), GFP-NOS1AP-S (GFP-NPS), and GFP-NOS1AP-181-307 (GFP-NOS1AP-M, GFP-NPM) were constructed in the pEGFP-C1 vector (Clontech Inc.). Cultured hippocampal neurons were transfected with the appropriate cDNA constructs as follows. Neurons were transfected on DIV 10 using […] following the manufacturer's protocol (Qiagen Inc.). Neurons were transfected on DIV 2, 5, or 7 using LIPOFECTAMINE-2000 following the manufacturer's protocol (Invitrogen Inc.). The Amaxa Nucleofector kit for Rat Neurons (Amaxa Inc., kit VPG-1003) was used to transfect newly dissected neurons (DIV 0) before plating.
Neurons were fixed in 4% paraformaldehyde in PBS for 30 minutes and then incubated in blocking solution (PBS containing 0.1% Triton X-100, 2% normal goat serum, and 0.02% sodium azide) for 1 h. All antibodies used were diluted in blocking solution. For GFP and NOS1AP or GFP and HA double immunostaining, dilutions of 1:1000 for rat anti-GFP and 1:500 for rabbit anti-NOS1AP, or 1:500 for goat anti-NOS1AP, or 1:1000 for mouse anti-HA (CRP Inc.) were used. […] Labeled cells were visualized by immunofluorescence on an Olympus Optical (Tokyo, Japan) IX50 microscope with a Cooke Sensicam charge-coupled device cooled camera fluorescence imaging system and Image Pro software (Media Cybernetics, Silver Spring, Md.).
Primary and secondary dendrite numbers were counted by hand with the experimenter blinded to the conditions (Akum et al., 2004). Pictures of neurons were contrast-enhanced and the numbers of primary and secondary dendrites for each neuron were recorded. […]

Molecule: shRNA against NOS1AP-L: shRNA to knock down NOS1AP-L, sequence 5′-GCAATATCTTCAGATGCAA-3′ (SEQ ID NO: 22), in the pSUPER vector
- decrease in NOS1AP expression (knockdown of endogenous NOS1AP protein) [1]: 40%
- decrease in NOS1AP expression (knockdown of endogenous NOS1AP protein) ([1]; listed as SEQ ID NO: 22): 40%
- decrease in NOS1AP expression (knockdown of endogenous NOS1AP protein) ([1]; listed as shRNA Against NOS1AP Coding Sequence (Position 398)): Approximately 45%
- increase in primary dendrite number ([2]; NOS1AP knocked down, DIV 10-12, 48 hours, vs scramble shRNA): 67%

Molecule: N[C@@H](CCCP(=O)(O)O)C(=O)O [APV]
- additional decrease in dendrite branching ([2]; NOS1AP-L transfected neurons treated with APV): does not result in any additional decrease
- drop in primary dendrite branching ([2]; control cells transfected with GFP alone, dosage of APV expected to fully block NMDA receptor function): approximately 25%

Molecule: COC(=O)[C@@H](N)CCCNC(=N)N[N+](=O)[O-] [L-NAME, N(ω)-nitro-L-arginine-methyl ester]
- difference in secondary dendrite number, NOS1AP-Long alone vs with L-NAME ([2]; 500 μM L-NAME, FIG. 10C): smaller, yet the distinction was still clear
- effect on NOS1AP-Long effects on dendrite branching ([2]; L-NAME 500 μM (FIG. 10 legend prints 500 nM) added right after transfection DIV 10, fixed DIV 12): partial reduction of NOS1AP-Long effects; also recorded: reduced NOS1AP-Long (CP-L) activity
